Reference: article PMC7988488 (The Journal of Biological Chemistry, 2021)
Read-outs that look alike come from different tables or passages of the source.

How the values were obtained:
[1] = system: capsaicin-induced nociceptive behavior; experiment: Capsaicin-induced nociception; format: in vivo, mice; conditions: 100 μg/kg i.m., 30 min before intraplantar capsaicin 1 μg; 5-min observation
Method: On the day of testing, ICR male mice were treated by intramuscular injection with equal volume of saline, H4 (10 and 30 μg/kg i.m.), or a positive control in the form of the potent Nav1.7 antagonist PF-05198007 (100 μg/kg i.m.) ([35]). Thirty minutes following test article treatment, animals were subjected to intraplantar injection of 1 μg of capsaicin in a volume of 20 μl of 5% EtOH in saline into the right hind paw. Immediately after the capsaicin injection, the total time spent engaged in licking of the injected hind paw was manually recorded over a 5-min period. All dosing and scoring activities were conducted by experimenters who were fully blinded to treatment conditions.

acute heat pain response = format: in vivo, mice
[2] = system: formalin-induced spontaneous pain behaviors; format: in vivo, mice
[3] = system: CFA-induced mechanical allodynia; set-up: species or system mice; conditions: mouse, in vivo
hNav1.7 mutants = format: cell-based, human

Nc1[nH]ncc1-c1cc(Cl)ccc1Oc1cc(F)c(S(=O)(=O)Nc2cscn2)cc1Cl [PF-05089771]
capsaicin-elicited paw licking response (in words) [1]: significantly blocked

CN1CC[C@]23c4c5ccc(O)c4O[C@H]2[C@@H](O)C=C[C@H]3[C@H]1C5 [morphine]
hot plate latency (acute heat pain response; mouse, in vivo, SD): 17.0 ± 0.9 s | paw licking time, early phase ([2]; mouse, in vivo): 110.3 ± 12.9 s | paw licking time, late phase ([2]; mouse, in vivo): 86.7 ± 8.5 s | duration of anti-allodynic effect [3]: 2 h | paw withdrawal threshold compared with saline (in words) [3]: significantly enhanced

Hainantoxin-III [Compound 1]
hot plate latency (acute heat pain response; 100 μg/kg i.p., 1 h after treatment, plate 55 °C, mean ± SD, n = 5 to 8): 15.1 ± 0.9 s | paw licking time, early phase ([2]; 100 μg/kg i.m., 30 min before formalin, early phase 0-10 min, control 145.2 ± 6.9 s): 68.1 ± 9.7 s | paw licking time, late phase ([2]; 100 μg/kg i.m., 30 min before formalin, late phase 15-35 min, control 224 ±16.7 s): 71.0 ± 13.0 s | affinity for hNav1.7 mutants versus WT hNav1.7 (in words) (hNav1.7 mutants): did not change significantly
